Data from the supplement of paper PMC12076712.
± gives the standard deviation of the averaged measurements.

Legend:
Experiment in all cases: pIC50, competition of probe 3 labelling in live cells
Settings in all cases: cell material: Jurkat cells
MAST3 = MAST3 (UniProt O60307)
RABGGTB = RABGGTB (UniProt P53611)
UniProt Q92918 = molecular target: UniProt Q92918
UniProt P28482 = molecular target: UniProt P28482
TLK2 = TLK2 (UniProt Q86UE8)
CLK1 = CLK1 (UniProt P49759)
CES3 = CES3 (UniProt Q6UWW8)
PNPLA6 = PNPLA6 (UniProt Q8IY17)
UniProt Q13043 = molecular target: T1, UniProt Q13043
T1 sequence (whole entry): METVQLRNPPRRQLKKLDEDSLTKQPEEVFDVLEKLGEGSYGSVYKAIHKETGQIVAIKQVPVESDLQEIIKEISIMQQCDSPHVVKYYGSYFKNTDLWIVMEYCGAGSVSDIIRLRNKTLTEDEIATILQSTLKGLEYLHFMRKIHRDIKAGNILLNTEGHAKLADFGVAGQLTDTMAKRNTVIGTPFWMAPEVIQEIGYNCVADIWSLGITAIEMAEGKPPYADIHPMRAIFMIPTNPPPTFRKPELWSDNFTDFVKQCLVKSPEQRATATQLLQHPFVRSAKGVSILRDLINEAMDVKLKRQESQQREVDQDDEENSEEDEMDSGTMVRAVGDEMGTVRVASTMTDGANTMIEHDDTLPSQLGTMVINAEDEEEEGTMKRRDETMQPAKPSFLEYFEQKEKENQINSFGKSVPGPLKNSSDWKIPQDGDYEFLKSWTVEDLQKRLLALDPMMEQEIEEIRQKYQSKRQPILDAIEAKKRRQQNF

NT5C3B = NT5C3B (UniProt Q969T7)
Chain of NT5C3B (Q969T7 whole entry): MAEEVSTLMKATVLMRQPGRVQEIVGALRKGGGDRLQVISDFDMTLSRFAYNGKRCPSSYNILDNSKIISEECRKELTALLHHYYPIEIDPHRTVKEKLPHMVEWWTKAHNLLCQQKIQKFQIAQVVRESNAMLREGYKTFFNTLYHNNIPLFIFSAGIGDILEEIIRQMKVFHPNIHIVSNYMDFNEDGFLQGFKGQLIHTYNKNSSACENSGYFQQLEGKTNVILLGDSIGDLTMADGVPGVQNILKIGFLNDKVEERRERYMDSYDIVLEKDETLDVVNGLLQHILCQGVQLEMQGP

UniProt P19525 = molecular target: UniProt P19525
Chain of UniProt P19525 (P19525 whole entry): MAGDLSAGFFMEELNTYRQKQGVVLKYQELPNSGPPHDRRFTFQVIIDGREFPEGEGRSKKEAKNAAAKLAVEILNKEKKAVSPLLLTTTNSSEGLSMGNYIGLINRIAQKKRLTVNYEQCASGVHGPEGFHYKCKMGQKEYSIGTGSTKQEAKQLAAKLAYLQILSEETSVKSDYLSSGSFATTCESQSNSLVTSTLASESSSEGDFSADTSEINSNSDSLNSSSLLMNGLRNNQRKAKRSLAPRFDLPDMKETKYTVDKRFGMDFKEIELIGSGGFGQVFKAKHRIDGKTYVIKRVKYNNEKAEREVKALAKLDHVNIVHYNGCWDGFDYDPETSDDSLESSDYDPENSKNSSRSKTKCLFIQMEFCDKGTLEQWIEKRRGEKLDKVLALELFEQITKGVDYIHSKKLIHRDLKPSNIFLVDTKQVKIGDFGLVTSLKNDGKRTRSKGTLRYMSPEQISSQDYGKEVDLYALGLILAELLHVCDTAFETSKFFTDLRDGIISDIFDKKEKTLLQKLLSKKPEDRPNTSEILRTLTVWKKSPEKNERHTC

UniProt Q9Y2H1 = molecular target: UniProt Q9Y2H1
Chain of UniProt Q9Y2H1 (Q9Y2H1 whole entry, looked up): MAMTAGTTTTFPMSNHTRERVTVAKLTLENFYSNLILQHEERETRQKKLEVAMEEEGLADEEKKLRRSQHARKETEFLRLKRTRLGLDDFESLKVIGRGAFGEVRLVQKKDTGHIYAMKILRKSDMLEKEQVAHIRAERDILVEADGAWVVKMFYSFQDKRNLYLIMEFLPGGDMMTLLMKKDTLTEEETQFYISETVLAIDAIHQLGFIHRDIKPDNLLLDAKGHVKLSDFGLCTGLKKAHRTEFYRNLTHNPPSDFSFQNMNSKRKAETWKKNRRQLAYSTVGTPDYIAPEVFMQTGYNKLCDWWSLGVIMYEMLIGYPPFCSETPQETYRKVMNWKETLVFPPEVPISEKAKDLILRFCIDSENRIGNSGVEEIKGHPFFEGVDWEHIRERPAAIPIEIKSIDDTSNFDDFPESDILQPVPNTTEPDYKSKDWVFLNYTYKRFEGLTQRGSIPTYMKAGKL

UniProt Q8NEB9 = molecular target: UniProt Q8NEB9
Chain of UniProt Q8NEB9 (Q8NEB9 whole entry): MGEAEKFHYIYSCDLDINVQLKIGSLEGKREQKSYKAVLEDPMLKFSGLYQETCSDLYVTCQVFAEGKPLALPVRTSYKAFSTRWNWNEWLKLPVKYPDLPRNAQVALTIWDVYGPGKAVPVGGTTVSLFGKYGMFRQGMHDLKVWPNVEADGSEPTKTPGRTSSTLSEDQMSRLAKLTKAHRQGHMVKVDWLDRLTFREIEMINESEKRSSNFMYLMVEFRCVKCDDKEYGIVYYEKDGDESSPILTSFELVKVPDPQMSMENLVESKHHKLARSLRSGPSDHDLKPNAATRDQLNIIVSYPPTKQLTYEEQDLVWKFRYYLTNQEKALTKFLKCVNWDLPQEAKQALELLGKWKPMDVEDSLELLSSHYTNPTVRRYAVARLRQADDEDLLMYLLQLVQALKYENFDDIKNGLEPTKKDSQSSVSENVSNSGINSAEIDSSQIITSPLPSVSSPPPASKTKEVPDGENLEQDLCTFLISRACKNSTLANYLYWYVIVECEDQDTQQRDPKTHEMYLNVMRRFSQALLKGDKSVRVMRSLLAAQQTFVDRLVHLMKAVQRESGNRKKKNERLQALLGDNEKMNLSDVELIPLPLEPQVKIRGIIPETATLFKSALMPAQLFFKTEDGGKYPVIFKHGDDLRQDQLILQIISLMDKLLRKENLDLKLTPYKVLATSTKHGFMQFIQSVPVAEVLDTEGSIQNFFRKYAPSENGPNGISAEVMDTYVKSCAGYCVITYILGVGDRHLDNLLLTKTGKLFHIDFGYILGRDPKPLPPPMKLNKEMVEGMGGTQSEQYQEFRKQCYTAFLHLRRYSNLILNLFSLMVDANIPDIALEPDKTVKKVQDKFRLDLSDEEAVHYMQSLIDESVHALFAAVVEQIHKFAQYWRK

SPR = SPR (UniProt P35270)
ABHD6 = ABHD6 (UniProt Q9BV23)
UniProt Q9P289 = molecular target: UniProt Q9P289
IRAK1 = IRAK1 (UniProt P51617)
FTO = FTO (UniProt Q9C0B1)
LYPLA2 = LYPLA2 (UniProt O95372)
Chain of LYPLA2 (O95372 whole entry): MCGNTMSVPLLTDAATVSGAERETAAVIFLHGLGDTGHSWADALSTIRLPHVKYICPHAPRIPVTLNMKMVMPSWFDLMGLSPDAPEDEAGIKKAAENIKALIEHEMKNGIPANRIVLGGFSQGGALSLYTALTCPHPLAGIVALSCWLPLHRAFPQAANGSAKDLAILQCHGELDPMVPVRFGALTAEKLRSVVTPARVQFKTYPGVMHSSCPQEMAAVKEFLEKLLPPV

UniProt Q15208 = molecular target: UniProt Q15208
SCCPDH = SCCPDH (UniProt Q8NBX0)
Chain of SCCPDH (Q8NBX0 whole entry): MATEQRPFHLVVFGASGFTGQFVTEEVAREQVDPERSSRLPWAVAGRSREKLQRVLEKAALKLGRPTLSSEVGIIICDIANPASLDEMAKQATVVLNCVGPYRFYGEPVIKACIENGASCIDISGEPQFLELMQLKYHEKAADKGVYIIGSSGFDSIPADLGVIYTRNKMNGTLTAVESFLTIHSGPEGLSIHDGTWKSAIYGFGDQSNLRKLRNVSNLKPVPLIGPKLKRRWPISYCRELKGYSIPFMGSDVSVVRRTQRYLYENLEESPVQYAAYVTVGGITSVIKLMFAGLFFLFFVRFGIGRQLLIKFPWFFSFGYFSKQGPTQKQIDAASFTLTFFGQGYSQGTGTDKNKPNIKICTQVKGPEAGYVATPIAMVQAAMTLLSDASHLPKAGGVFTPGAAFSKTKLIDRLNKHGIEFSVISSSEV

PXMP2 = PXMP2 (UniProt Q9NR77)
Chain of PXMP2 (Q9NR77 whole entry): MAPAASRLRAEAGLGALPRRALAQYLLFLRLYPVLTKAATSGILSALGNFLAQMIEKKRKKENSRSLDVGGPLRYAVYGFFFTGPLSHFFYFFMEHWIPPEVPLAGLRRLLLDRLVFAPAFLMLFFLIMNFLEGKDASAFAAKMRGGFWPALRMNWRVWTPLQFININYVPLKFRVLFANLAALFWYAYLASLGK

UniProt Q15831 = molecular target: T2, UniProt Q15831
T2 sequence (whole entry): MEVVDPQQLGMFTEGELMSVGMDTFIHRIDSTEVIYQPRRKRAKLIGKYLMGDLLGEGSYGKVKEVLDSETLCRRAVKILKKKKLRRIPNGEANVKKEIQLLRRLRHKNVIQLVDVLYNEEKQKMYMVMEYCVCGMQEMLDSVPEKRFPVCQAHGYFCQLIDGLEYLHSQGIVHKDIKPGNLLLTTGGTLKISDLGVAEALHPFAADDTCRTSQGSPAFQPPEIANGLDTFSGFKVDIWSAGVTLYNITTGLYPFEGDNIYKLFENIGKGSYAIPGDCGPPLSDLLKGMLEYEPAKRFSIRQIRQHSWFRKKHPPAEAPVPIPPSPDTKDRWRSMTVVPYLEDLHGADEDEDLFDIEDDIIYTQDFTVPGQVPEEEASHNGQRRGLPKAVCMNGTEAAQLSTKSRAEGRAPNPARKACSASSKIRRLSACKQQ

TAOK3 = TAOK3 (UniProt Q9H2K8)
SLK = SLK (UniProt Q9H2G2)
UniProt P06493 = molecular target: UniProt P06493
UniProt P45984 = molecular target: UniProt P45984
Chain of UniProt P45984 (P45984 whole entry, looked up): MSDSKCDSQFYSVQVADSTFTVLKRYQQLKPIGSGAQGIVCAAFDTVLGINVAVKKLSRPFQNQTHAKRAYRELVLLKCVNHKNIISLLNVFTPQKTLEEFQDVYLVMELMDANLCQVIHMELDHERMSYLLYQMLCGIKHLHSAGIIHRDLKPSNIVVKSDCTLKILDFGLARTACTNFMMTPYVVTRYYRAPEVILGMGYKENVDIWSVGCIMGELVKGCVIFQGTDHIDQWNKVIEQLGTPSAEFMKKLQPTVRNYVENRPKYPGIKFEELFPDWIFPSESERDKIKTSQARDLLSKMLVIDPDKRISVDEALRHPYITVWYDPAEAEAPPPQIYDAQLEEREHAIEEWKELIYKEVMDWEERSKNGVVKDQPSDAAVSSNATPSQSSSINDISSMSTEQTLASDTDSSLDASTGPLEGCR

RIPK1 = RIPK1 (UniProt Q13546)
CDK4 = CDK4 (UniProt P11802)

Chain of TLK2 (Q86UE8 whole entry, looked up): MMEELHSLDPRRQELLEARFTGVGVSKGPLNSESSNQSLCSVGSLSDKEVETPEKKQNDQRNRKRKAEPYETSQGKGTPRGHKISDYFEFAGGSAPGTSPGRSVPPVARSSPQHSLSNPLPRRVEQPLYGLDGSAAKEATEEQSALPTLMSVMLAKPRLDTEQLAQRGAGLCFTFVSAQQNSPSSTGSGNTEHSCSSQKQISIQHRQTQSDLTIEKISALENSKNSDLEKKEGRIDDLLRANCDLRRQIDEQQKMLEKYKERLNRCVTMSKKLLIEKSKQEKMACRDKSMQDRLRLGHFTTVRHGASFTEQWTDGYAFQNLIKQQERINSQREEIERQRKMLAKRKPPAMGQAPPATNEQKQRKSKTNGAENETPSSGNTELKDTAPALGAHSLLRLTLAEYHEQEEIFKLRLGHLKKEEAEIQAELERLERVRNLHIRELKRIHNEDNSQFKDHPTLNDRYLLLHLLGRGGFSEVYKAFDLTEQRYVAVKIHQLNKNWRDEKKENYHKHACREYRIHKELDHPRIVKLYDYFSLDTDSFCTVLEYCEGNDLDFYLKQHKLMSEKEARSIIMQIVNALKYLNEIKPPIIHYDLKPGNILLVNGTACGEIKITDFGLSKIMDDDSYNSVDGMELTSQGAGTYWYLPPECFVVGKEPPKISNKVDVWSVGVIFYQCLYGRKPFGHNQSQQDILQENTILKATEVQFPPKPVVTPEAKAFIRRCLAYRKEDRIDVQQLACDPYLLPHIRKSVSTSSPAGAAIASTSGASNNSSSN
Chain of RABGGTB (P53611 whole entry): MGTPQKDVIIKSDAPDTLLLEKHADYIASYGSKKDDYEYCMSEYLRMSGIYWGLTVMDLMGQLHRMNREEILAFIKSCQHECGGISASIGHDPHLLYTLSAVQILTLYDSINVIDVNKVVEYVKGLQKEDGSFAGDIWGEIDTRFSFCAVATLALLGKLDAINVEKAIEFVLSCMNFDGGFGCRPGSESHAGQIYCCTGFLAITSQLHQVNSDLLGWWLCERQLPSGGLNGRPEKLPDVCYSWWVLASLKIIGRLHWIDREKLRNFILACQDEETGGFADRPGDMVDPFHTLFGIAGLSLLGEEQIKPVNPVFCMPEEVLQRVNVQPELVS
Chain of UniProt P28482 (P28482 whole entry): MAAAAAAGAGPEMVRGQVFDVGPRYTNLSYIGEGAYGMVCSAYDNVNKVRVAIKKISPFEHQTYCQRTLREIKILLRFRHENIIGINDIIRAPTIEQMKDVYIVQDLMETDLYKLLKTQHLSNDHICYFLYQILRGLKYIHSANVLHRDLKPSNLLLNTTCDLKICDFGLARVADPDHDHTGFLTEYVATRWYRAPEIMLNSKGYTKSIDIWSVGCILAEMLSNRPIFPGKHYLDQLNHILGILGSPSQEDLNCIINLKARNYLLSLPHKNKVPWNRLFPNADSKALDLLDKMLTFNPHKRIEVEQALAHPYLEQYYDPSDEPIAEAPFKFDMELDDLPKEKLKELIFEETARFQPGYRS

Row | pIC50 (MAST3) | pIC50 (RABGGTB) | pIC50 (UniProt Q92918) | pIC50 (UniProt P28482) | pIC50 (TLK2) | pIC50 (CLK1) | pIC50 (CES3) | pIC50 (PNPLA6) | pIC50 (UniProt Q13043) | pIC50 (NT5C3B) | pIC50 (UniProt P19525) | pIC50 (UniProt Q9Y2H1) | pIC50 (UniProt Q8NEB9) | pIC50 (SPR) | pIC50 (ABHD6) | pIC50 (UniProt Q9P289) | pIC50 (IRAK1) | pIC50 (FTO) | pIC50 (LYPLA2) | pIC50 (UniProt Q15208) | pIC50 (SCCPDH) | pIC50 (PXMP2) | pIC50 (UniProt Q15831) | pIC50 (TAOK3) | pIC50 (SLK) | pIC50 (UniProt P06493) | pIC50 (UniProt P45984) | pIC50 (RIPK1) | pIC50 (CDK4) | Structure (SMILES)
1 | < 4.52 | < 4.52 | < 4.52 | < 4.52 | < 4.52 | < 4.52 | < 4.52 | < 4.52 | < 4.52 | < 4.52 | < 4.52 | < 4.52 | < 4.52 | < 4.52 | < 4.52 | < 4.52 | < 4.52 | < 4.52 | < 4.52 | < 4.52 | < 4.52 | < 4.52 | 5.24 ± 0.12 | < 4.52 | < 4.52 |  |  |  |  | CCc1cnn2c(NCc3ccc[n+]([O-])c3)cc(N3CCCC[C@H]3CCO)nc12 [dinaciclib]
2 |  |  |  |  |  |  |  |  |  |  |  |  |  |  |  |  |  |  |  |  |  |  |  |  |  | < 4.52 | 4.6 | < 4.52 | < 4.52 | CC#CC(=O)Nc1ccc2ncnc(Nc3cccc(Br)c3)c2c1 [EKI-785]
